# Results published in PubChem BioAssay (NCI).
#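 Exposure lasted 48 hours, with cells grown in 96-well plates and compounds tested at five concentrations. Here, GI50 denotes the concentration required for 50% inhibition of growth. Definition used: TGI = concentration required for complete inhibition of growth.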
# What was measured:
# Assay in all cases: growth of human tumour cells (NCI), 48 h
# MDA-MB-435 = tested on: MDA-MB-435
# SF-268 CNS = tested on: SF-268 CNS
# K-562 leukemia = tested on: K-562 leukemia
# UO-31 renal = tested on: UO-31 renal
# SNB-75 CNS = tested on: SNB-75 CNS
# 786-0 renal = tested on: 786-0 renal
# OVCAR-8 ovarian = tested on: OVCAR-8 ovarian
# HOP-62 NSCLC = tested on: HOP-62 NSCLC
# HT29 colon = tested on: HT29 colon
# HCT-116 colon = tested on: HCT-116 colon
# CAKI-1 renal = tested on: CAKI-1 renal
# SW-620 colon = tested on: SW-620 colon
# IGROV1 ovarian = tested on: IGROV1 ovarian
# UACC-257 melanoma = tested on: UACC-257 melanoma
# BT-549 breast = tested on: BT-549 breast
# HS 578T breast = tested on: HS 578T breast
# DU-145 prostate = tested on: DU-145 prostate
# EKVX NSCLC = tested on: EKVX NSCLC
# U251 CNS = tested on: U251 CNS
# M14 melanoma = tested on: M14 melanoma
# ACHN renal = tested on: ACHN renal
# OVCAR-4 ovarian = tested on: OVCAR-4 ovarian
# OVCAR-3 ovarian = tested on: OVCAR-3 ovarian
# MOLT-4 leukemia = tested on: MOLT-4 leukemia
# A498 renal = tested on: A498 renal
# A549 NSCLC = tested on: A549 NSCLC
# NCI/ADR-RES ovarian = tested on: NCI/ADR-RES ovarian
# SK-MEL-2 melanoma = tested on: SK-MEL-2 melanoma
# HCT-15 colon = tested on: HCT-15 colon
# CCRF-CEM leukemia = tested on: CCRF-CEM leukemia
# HL-60(TB) leukemia = tested on: HL-60(TB) leukemia
# OVCAR-5 ovarian = tested on: OVCAR-5 ovarian
# SF-539 CNS = tested on: SF-539 CNS
# HOP-92 NSCLC = tested on: HOP-92 NSCLC
# T-47D breast = tested on: T-47D breast
# RXF 393 renal = tested on: RXF 393 renal
# SR leukemia = tested on: SR leukemia
# SK-MEL-5 melanoma = tested on: SK-MEL-5 melanoma
# LOX IMVI melanoma = tested on: LOX IMVI melanoma
# SF-295 CNS = tested on: SF-295 CNS
# TK-10 renal = tested on: TK-10 renal
# KM12 colon = tested on: KM12 colon
# SK-MEL-28 melanoma = tested on: SK-MEL-28 melanoma
# NCI-H23 lung = tested on: NCI-H23 lung
# NCI-H460 lung = tested on: NCI-H460 lung
# PC-3 prostate = tested on: PC-3 prostate
# MALME-3M melanoma = tested on: MALME-3M melanoma
# SNB-19 CNS = tested on: SNB-19 CNS
# NCI-H522 lung = tested on: NCI-H522 lung
# HCC-2998 colon = tested on: HCC-2998 colon
# MDA-MB-231 breast = tested on: MDA-MB-231 breast
# SN12C renal = tested on: SN12C renal
# RPMI-8226 leukemia = tested on: RPMI-8226 leukemia
# UACC-62 melanoma = tested on: UACC-62 melanoma
smiles,measurement,setting,value
CN(C)C1CCN(Cc2ccc(NC(=O)c3cncc(C#Cc4cnc(N)c5ncccc45)c3)cc2C(F)(F)F)CC1,GI50,MDA-MB-435,922 nM
same,TGI,MDA-MB-435,1830 nM
same,GI50,SF-268 CNS,1680 nM
same,TGI,SF-268 CNS,4.72 µM
same,GI50,K-562 leukemia,15.8 nM
same,TGI,K-562 leukemia,1020 nM
same,GI50,UO-31 renal,999 nM
same,TGI,UO-31 renal,1780 nM
same,GI50,SNB-75 CNS,5.39 µM
same,TGI,SNB-75 CNS,11.5 µM
same,GI50,786-0 renal,1010 nM
same,TGI,786-0 renal,1930 nM
same,GI50,OVCAR-8 ovarian,9.11 µM
same,TGI,OVCAR-8 ovarian,29 µM
same,GI50,HOP-62 NSCLC,9.34 µM
same,TGI,HOP-62 NSCLC,26.4 µM
same,GI50,HT29 colon,1300 nM
same,TGI,HT29 colon,6.82 µM
same,GI50,HCT-116 colon,8.28 µM
same,TGI,HCT-116 colon,18 µM
same,GI50,CAKI-1 renal,8.44 µM
same,TGI,CAKI-1 renal,15.6 µM
same,GI50,SW-620 colon,1320 nM
same,TGI,SW-620 colon,4.03 µM
same,GI50,IGROV1 ovarian,9.48 µM
same,TGI,IGROV1 ovarian,19.9 µM
same,GI50,UACC-257 melanoma,1430 nM
same,TGI,UACC-257 melanoma,3.97 µM
same,GI50,BT-549 breast,7.77 µM
same,TGI,BT-549 breast,15.3 µM
same,GI50,HS 578T breast,3.84 µM
same,TGI,HS 578T breast,14.8 µM
same,GI50,DU-145 prostate,904 nM
same,TGI,DU-145 prostate,1720 nM
same,GI50,EKVX NSCLC,8.46 µM
same,TGI,EKVX NSCLC,18.7 µM
same,GI50,U251 CNS,1030 nM
same,TGI,U251 CNS,2220 nM
same,GI50,M14 melanoma,962 nM
same,TGI,M14 melanoma,1870 nM
same,GI50,ACHN renal,828 nM
same,TGI,ACHN renal,1510 nM
same,GI50,OVCAR-4 ovarian,1900 nM
same,TGI,OVCAR-4 ovarian,9.24 µM
same,GI50,OVCAR-3 ovarian,9.3 µM
same,TGI,OVCAR-3 ovarian,17.6 µM
same,GI50,MOLT-4 leukemia,1550 nM
same,TGI,MOLT-4 leukemia,5.57 µM
same,GI50,A498 renal,5.65 µM
same,TGI,A498 renal,14.1 µM
same,GI50,A549 NSCLC,8.25 µM
same,TGI,A549 NSCLC,19.2 µM
same,GI50,NCI/ADR-RES ovarian,1230 nM
same,TGI,NCI/ADR-RES ovarian,2700 nM
same,GI50,SK-MEL-2 melanoma,8.02 µM
same,TGI,SK-MEL-2 melanoma,19.8 µM
same,GI50,HCT-15 colon,5.08 µM
same,TGI,HCT-15 colon,13.7 µM
same,GI50,CCRF-CEM leukemia,1540 nM
same,TGI,CCRF-CEM leukemia,6.07 µM
same,GI50,HL-60(TB) leukemia,9.8 µM
same,TGI,HL-60(TB) leukemia,24.4 µM
same,GI50,OVCAR-5 ovarian,8.21 µM
same,TGI,OVCAR-5 ovarian,15.6 µM
same,GI50,SF-539 CNS,2130 nM
same,TGI,SF-539 CNS,8.98 µM
same,GI50,HOP-92 NSCLC,2770 nM
same,TGI,HOP-92 NSCLC,11.3 µM
same,GI50,T-47D breast,11.6 µM
same,TGI,T-47D breast,43.8 µM
same,GI50,RXF 393 renal,1900 nM
same,TGI,RXF 393 renal,7.67 µM
same,GI50,SR leukemia,2050 nM
same,TGI,SR leukemia,50 µM
same,GI50,SK-MEL-5 melanoma,5.51 µM
same,TGI,SK-MEL-5 melanoma,12.9 µM
same,GI50,LOX IMVI melanoma,8.01 µM
same,TGI,LOX IMVI melanoma,20 µM
same,GI50,SF-295 CNS,8.88 µM
same,TGI,SF-295 CNS,17.3 µM
same,GI50,TK-10 renal,9.69 µM
same,TGI,TK-10 renal,19.5 µM
same,GI50,KM12 colon,236 nM
same,TGI,KM12 colon,6.88 µM
same,GI50,SK-MEL-28 melanoma,912 nM
same,TGI,SK-MEL-28 melanoma,1740 nM
same,GI50,NCI-H23 lung,7.9 µM
same,TGI,NCI-H23 lung,19.9 µM
same,GI50,NCI-H460 lung,1120 nM
same,TGI,NCI-H460 lung,2500 nM
same,GI50,PC-3 prostate,7.42 µM
same,TGI,PC-3 prostate,15.5 µM
same,GI50,MALME-3M melanoma,828 nM
same,TGI,MALME-3M melanoma,1650 nM
same,GI50,SNB-19 CNS,10 µM
same,TGI,SNB-19 CNS,21.2 µM
same,GI50,NCI-H522 lung,9.86 µM
same,TGI,NCI-H522 lung,26.5 µM
same,GI50,HCC-2998 colon,9.21 µM
same,TGI,HCC-2998 colon,20.2 µM
same,GI50,MDA-MB-231 breast,742 nM
same,TGI,MDA-MB-231 breast,1610 nM
same,GI50,SN12C renal,8.94 µM
same,TGI,SN12C renal,18.1 µM
same,GI50,RPMI-8226 leukemia,4.31 µM
same,TGI,RPMI-8226 leukemia,17 µM
same,GI50,UACC-62 melanoma,6.09 µM
same,TGI,UACC-62 melanoma,13.8 µM
